{
  "source": "paper PMC9785397",
  "about": "“Exploiting Conserved Quorum Sensing Signals in Streptococcus mutans and Streptococcus pneumoniae” (Microorganisms, 2022)",
  "test_system": "S. sanguinis",
  "assay": "microbe, parasite or virus in culture",
  "assay_type": "cell-based, Streptococcus sanguinis",
  "details": "peptides 0–50 μM, 16 h, 37 °C, microaerophilic, A620 nm, three separate experiments",
  "excerpt": "Streptococcus mutans Clarke (strain designation NCTC 10449), Pseudomonas aeruginosa (Schroeter) Migula (strain designation PAO1), Fusobacterium nucleatum, subspecies nucleatum (strain VPI 4355), and Porphyromonas gingivalis (strain 2561) were purchased from ATCC (LGC Standards Srl, Milan, Italy). Streptococcus mitis, Streptococcus oralis, and Streptococcus sanguinis were obtained from clinical isolates and characterized by morphological, biochemical, and molecular typing. S. mutans, S. mitis, S. oralis, and S. sanguinis were maintained in Brain Heart Infusion (BHI) broth or agar under microaerophilic conditions. P. aeruginosa was maintained in trypticase soy (TS) agar or broth. F. nucleatum was maintained in TS agar or broth with defibrinated sheep blood under anaerobic conditions. P. gingivalis was maintained in ATCC Medium 2722 supplemented with TS broth or agar under anaerobic conditions. Before the experiments, bacterial cultures were inoculated in fresh media (dilution 1:100) and grown for 16 h at 37 °C.\nThe antimicrobial activities of the tested peptides were assessed through the determination of the minimum inhibitory concentration (MIC) standardized by the Clinical and Laboratory Standards Institute. Bacterial inocula were diluted in 10 mL of MHB […]. The concentration of the bacteria was adjusted to 0.5 McFarland standard, and the bacteria were dispensed in 96-well microtiter plates (final bacterial concentration: 1 × 10^4 CFU/well). Peptides were dissolved in sterile water (stock concentration: 2 mM) and added at final concentrations ranging from 0 to 50 µM. Plates were incubated at 37 °C for 16 h. At the end of incubation, bacterial growth was recorded using a microplate reader (Varioskan Lux Reader; Thermo Fisher Scientific, Milan, Italy) by quantifying the adsorption at 620 nm. Cultures were then opportunely diluted and seeded on agar plates. Bacterial cultures inoculated with the highest final concentration of the vehicle (sterile water) or chlorhexidine hydrochloride salt (CHX, concentration range: 0.05 to 500 μg/mL; Merck, Milan, Italy) were included as controls in each test. Experiments were performed in triplicate.",
  "data": [
    {"smiles": "CC[C@H](C)[C@H](NC(=O)[C@H](Cc1ccccc1)NC(=O)[C@H](CC(=O)O)NC(=O)[C@H](CCCNC(=N)N)NC(=O)[C@H](Cc1ccccc1)NC(=O)[C@H](Cc1ccccc1)NC(=O)[C@H](CCCCN)NC(=O)[C@H](CO)NC(=O)[C@H](CC(C)C)NC(=O)[C@H](CCCNC(=N)N)NC(=O)[C@H](CCSC)NC(=O)[C@@H](N)CCC(=O)O)C(=O)N[C@@H](CC(C)C)C(=O)N[C@@H](CCC(N)=O)C(=O)N[C@@H](CCCNC(=N)N)C(=O)N[C@@H](CCCCN)C(=O)N[C@@H](CCCCN)C(=O)O", "note": "[CSP1]", "values": [
      {"measurement": "Minimum inhibitory concentration (MIC), S. sanguinis", "value": 21, "unit": "µM"}
    ]}
  ]
}
